Legend:
VCaP xenografts = test: Castrated VCaP xenograft study; format: in vivo; details: for tumor growth inhibition (TGI): castrated mice
Source text: Immunodifficient male CB-17 SCID mice (CB17/Icr-Prkdc^scid/IcrIcoCrlBltw) and NOD SCID mice (NOD.CB17-Prkdc^scid/NCrCrlBltw) mice at four to six weeks of age were purchased from BioLASCO Taiwan Co., Ilan, Taiwan. All mice were housed in conventional cages in the AAALAC Full Accreditation (2011) in Industrial Technology Research Institute and were allowed to acclimatize and recover from shipping-related stress for one week prior to the study. The health of the mice was monitored by daily observations. Animals were kept in rooms at temperature of 22–26°C with 40–70 % humidity, positive pressure, 60 % air recirculation, ventilation rate 15–20 changes per hour, and a controlled light-dark cycle (12–12 hours). The order and location of each animal cage was randomly assigned to minimize potential confounders. CWR22Rv1 cells (5 × 10^6) were suspended in 100 μL of PBS with 30 % Matrigel and subcutaneously implanted into the right flank of male CB-17 SCID mice. Tumors were measured with calipers, and tumor size was calculated as follows: tumor volume (V) = (L × S^2)/2 (L, longest diameter, mm; S, shortest diameter, mm). When mean tumor volume reached 150–200 mm^3, the mice were randomly assigned into indicated groups (n = 5-6/ group) and the day of initiating treatments was assigned as day 0. VCaP cells (5 × 10⁶) suspended in 50 % Matrigel were subcutaneously implanted into male NOD SCID mice. Once tumors reached approximately 250 mm³, castration surgery was performed. After tumor regression and subsequent regrowth to around 250 mm³, treatment with ITRI-148 was initiated. Oral (PO) gavage was used for the drug administration, including vehicle control and ITRI-148 treatments (7.5 mg/kg, 15 mg/kg, 30 mg/kg, or 60 mg/kg, BID). Tumor size and body weight of the animals were monitored and recorded two to three times per week. Mice were sacrificed when one of the tumor reached over 1000 mm^3 in size. Tumors were collected and immediately subjected to liquid nitrogen freezing and homogenization. The homogenized tumor samples were stored at −80°C for subsequent western blotting analysis. The drug antitumor efficacy was presented as percentages of TGI of each tested animal, calculated as follows: [1 − (final tumor volume ^treated group – initial tumor volume ^treated group) / (final tumor volume ^vehicle group – initial tumor volume ^vehicle group)] × 100. Body weight of each mouse was also compared to that on the first day of treatment (day 0) and expressed as a percentage of day 0 value. All data points were included for calculation and the values are presented as mean ± SEM. Statistical analysis of the differences between two drug and vehicle treated groups was determined by two-tailed Student’s t-test.

[1] = Metabolic stability in mouse liver microsomes; format: in vitro ADME
Protocol: The metabolic stability of all PROTAC compounds in the screening phase (Table 1) was evaluated using mouse liver microsomes. Incubations were performed at 37 °C in phosphate buffer (pH 7.4) containing NADPH (1 mM), 0.5 mg/mL microsomal protein and 1 μM ITRI-148 (0.25 % DMSO) for 0, 5, 20, or 30 minutes, followed by quenching with acetonitrile (1:3, v/v) for HPLC analysis. To evaluate the species-specific metabolism of ITRI-148, its stability was assessed in liver microsomes from human, dog, rat, and mouse using same incubation conditions as above, with the time extending to 0, 15, 30, 45, and 60 minutes, followed by acetonitrile quenching (1:10) and LC-MS/MS analysis.

O=C1CCC(N2C(=O)c3cccc(NCC(=O)N4CCC(N5CCC(C#Cc6ccc(C7CCN(C8=Nn9c(nnc9C(F)(F)F)CC8)CC7)cc6)CC5)CC4)c3C2=O)C(=O)N1 (stereo not shown) [ITRI-148]
toxicity reflected by weight-loss of the animals (VCaP xenografts; PO 7.5-30 mg/kg BID): No toxicity reflected by weight-loss of the animals was observed
tumor growth inhibition (TGI) (VCaP xenografts; PO 7.5 mg/kg BID): 49.06%
tumor growth inhibition (TGI) (VCaP xenografts; PO 15 mg/kg BID): 95.08%
tumor growth inhibition (TGI) (VCaP xenografts; PO 30 mg/kg BID, average): 147.07%
Remaining of intact drug (%) ([1]; mice liver microsomes, 1 μM, incubation up to 60 minutes): 80.7 ± 1.8%
remaining at 0.5 h, 1 μM ([1]; mouse, liver microsomes, pH 7.4, mice microsomes, 30 min of incubation, read-out: Microsome stability (% remaining)): 97.2%
half-life at 1 μM ([1]; mouse, pH 7.4, mice liver microsomes, read-out: Plasma Stability t1/2 (microsome panel)): > 1 h

Source: paper PMC12661400, “Oral bioavailable ITRI-148 degrades androgen receptor variants and overcomes antiandrogen resistance in advanced prostate cancer” (Neoplasia (New York, N.Y.), 2025)
